Measured values: patent US9526766B2, “Potentiation of antibiotic treatment with a protein-lipid complex” (priority 2012, dated 2016)
Entries after “also recorded” stand apart in the source; their conditions may differ. Read-outs that look alike come from different tables or passages of the source.

B1: ALAFAC: non-covalent complex of alpha-lactalbumin and fatty acid (oleic acid); labeled HAMLET or HL in drawings and tables (protein, UniProt P00709 20-142, looked up)
Alpha-lactalbumin: KQFTKCELSQLLKDIDGYGGIALPELICTMFHTSGYDTQAIVENNESTEYGLFQISNKLWCKSSQVPQSRNICDISCDKFLDDDITDDIMCAKKILDIKGIDYWLAHKALCTEKLEQWLCEKL
modifications: complexed with oleic acid

Legend:
[1] = tested on: Staphylococcus aureus biofilms; experiment: Static biofilm model, viable counts; format: cell-based; details: for Biofilm bactericidal activity, reduction in viable bacteria: MRSA NRS 70 and MSSA 11090306 biofilms, 24 hours, ALAFAC 200 μg/mL (12 μM), methicillin 250 μg/mL (660 μM); for Biofilm bactericidal activity, reduction in viable bacteria / Biofilm viability: alone or combined; for Biofilm death / reduction in biofilm biomass: methicillin 1,000 μg/ml monotherapy, combination with 100 μg/ml ALAFAC; for Minimum antibiotic concentration for bactericidal (>3 log10) activity on biofilms: 12 hours, antibiotic alone; for Biofilm viability: NRS 1 and NRS 384 biofilms, ALAFAC 500 μg/ml (30 μM), gentamicin 50 μg/ml (105 μM)
Procedure: Static Biofilm Model. Staphylococci were grown in TSB to mid-logarithmic phase (OD600=0.5), washed, and resuspended in fresh pre-warmed medium to a density of 2×10^4 CFU in 500 μl volume, and suspensions were used to seed polystyrene 24-well plates. Bacteria were cultured at 37° C. for 12 hours, after which biofilms were washed with PBS to eliminate planktonic bacteria and were exposed to TSB with indicated concentrations of ALAFAC and/or antibiotics for 24 hours at 37° C. Biofilms were then washed in PBS, sonicated and detached by scraping the surface in the presence of 100 μL PBS followed by a rinse with 100 μL PBS. Collected cells were vortexed twice for 20 seconds at high speed and the dispersed biofilm cells were first observed by microscopy to ensure proper dispersion and then diluted in a 10-fold dilution series where 100 μl of each dilution was plated on blood agar plates to determine viable CFUs per ml after overnight growth at 37° C. Colony counts from plates carrying 20-200 colonies were used to determine the viable counts and are reported as the total number of colony-forming units per biofilm.

[2] = tested on: S. pneumoniae nasopharyngeal colonization; experiment: Murine nasopharyngeal colonization model, intranasal treatment; format: in vivo, Streptococcus pneumoniae; details: for Minimum antibiotic concentration for bactericidal (>3 log10) activity on murine nasopharyngeal colonization: mice, within 12 hours, antibiotic alone; for Colonization level / bacterial burden: mice colonized with SP670 for 48 hours, penicillin up to 100 μg (5,000 μg/ml) intranasally, 12 hours
Procedure: Methodology: Six-week-old female BALB/cByJ mice from Jackson Laboratories (Bar Harbor, Me., U.S.A.) were maintained in filter-top cages on standard laboratory chow and water ad libitum until use. Mice were colonized as described previously. In short, 20 μl of a bacterial suspension containing 5×10^6 CFUs of EF3030 pneumococci, 1×10^8 CFUs of SP670 pneumococci, or 5×10^7 NRS70 methicillin-resistant S. aureus in PBS were pipetted into the nares of non-anesthetized mice. […] Colonization burden was then assessed after euthanizing the animals by enumerating viable bacteria from harvested nasopharyngeal tissue after the nasal wash. Nasopharyngeal tissue was dissected out as described by removing the upper skull bone, and harvesting the tissue present in the nasal conchae with forceps. Bacterial load was measured by determining viable plate counts from the homogenized tissue.
Mice were colonized as described. In short, 20 μl of a bacterial suspension containing 5×10^6 CFUs of EF3030 pneumococci in PBS or 1×10^8 CFUs of SP670 pneumococci in PBS were pipetted into the nares of non-anesthetized mice. […] Colonization burden was then assessed after euthanizing the animals by enumerating viable bacteria both in a nasopharyngeal lavage obtained by injecting 100 μL PBS in the trachea of mice and collecting it as it flowed out the nares, and from harvested nasopharyngeal tissue after the nasal wash. Nasopharyngeal tissue was dissected out as described by removing the upper skull bone, and harvesting the tissue present in the nasal conchae with forceps. Bacterial load was measured by determining viable plate counts from the nasal lavage or from homogenized tissue.

Streptococcus pneumoniae = experiment: MIC by broth microdilution, antibiotics with and without ALAFAC; format: cell-based
Procedure: Methodology: Minimal inhibitory concentrations (MICs) were determined in 96-well microtiter plates using the microdilution method according to approved standards of the CLSI except that Todd-Hewitt medium supplemented with 0.5% yeast extract, which yields reproducible MIC results was used as the test medium for S. pneumoniae. For the remaining species Mueller-Hinton medium was used as indicated by the CLSI standard. Each well contained two-fold dilutions of antibiotic, was seeded with a final bacterial concentration of 10^5 CFU/mL, and was incubated for 18 h at 37° C. in a Synergy II microplate reader (Biotek, Winooski, Vt.) where the OD600 was recorded every 5 minutes to monitor bacterial growth. The MIC was defined as the lowest concentration of antimicrobial agent solution at which no increase in OD600 was detected.
In vitro susceptibility tests. Minimal inhibitory concentrations (MICs) were determined in 96-well microtiter plates using the microdilution method according to approved standards of the CLSI except that Todd-Hewitt medium supplemented with 0.5% yeast extract, which yields reproducible MIC results was used as the test medium for S. pneumoniae. MICs for A. baumanni, and M. catarrhalis were determined in MH media. Two-fold dilutions of a starting antibiotic concentration was added in triplicate into microtiter plate wells (in 96-well plates), were seeded with a final bacterial concentration of ˜10^5 colony forming units (CFU)/mL, and was incubated for 18 h in ambient air at 37° C. in a Synergy II microplate reader (Biotek, Winooski, Vt.) where the OD600 was recorded every 5 minutes to monitor bacterial growth. The MIC was defined as the lowest concentration of antimicrobial agent solution at which no increase in OD600 was detected.

[3] = tested on: Streptococcus pneumoniae biofilms; experiment: Static biofilm model, viable counts; format: cell-based; details: for Biofilm killing: alone or combined; for Minimum antibiotic concentration for bactericidal (>3 log10) activity on biofilms: within 4-6 hours, antibiotic alone
Procedure: Methodology: Pneumococci were grown statically in CDM and S. aureus were grown in trypic soy medium to mid-logarithmic phase (OD600=0.5), washed, and resuspended in fresh pre-warmed medium to a density of 2×10^4 CFU in 500 μl volume, and suspensions were used to seed sterile round glass coverslips in the bottom of polystyrene 24-well plates with or without a substratum of confluent H292 epithelial cells. Biofilms were cultured at 34° C. in 5% CO2 for indicated times with change of culture media every 12 hours and to assess biomass and antibiotic resistance by viable counts (as described).
Biofilms were then washed in PBS and detached by scraping the surface in the presence of 100 μL PBS followed by a rinse with 100 μL PBS. Collected cells were sonicated in a sonication water bath for 2 s followed by vortexing twice for 20 seconds at high speed and the dispersed biofilm cells were used to determine viable CFUs per ml from diluted samples plated and grown on blood agar.
Static Biofilm Model. Pneumococci were grown in CDM to mid-logarithmic phase (OD600=0.5), washed, and resuspended in fresh pre-warmed medium to a density of 2×10^4 CFUs in 500 μl volume, and suspensions were used to seed sterile round glass coverslips in the bottom of polystyrene 24-well plates with a substratum of confluent H292 epithelial cells as described. Biofilms were cultured at 34° C. in 5% CO2 for indicated times with change of culture media every 12 hours and used for SEM studies or to assess biomass and antibiotic resistance by viable plate counts.
Biofilms were then washed in PBS, dispersed by sonication, and collected by pipetting in 100 μL PBS followed by a rinse with 100 μL PBS. Collected cells were then vortexed twice for 20 seconds at high speed and the dispersed biofilm cells were used to determine viable CFUs per ml from diluted samples plated and grown on blood agar. Results are reported as the total number of CFUs per biofilm.

[4] = ALAFAC 50 μg, alone or combined
[5] = D39 48 h biofilm (8.3 log10) on epithelial substratum, 250 μg/ml ALAFAC, 100 μg/ml penicillin
[6] = SP670 biofilm, ALAFAC 250 μg/mL, penicillin 100 μg/mL
[7] = S. pneumoniae EF3030, agent alone
[8] = S. pneumoniae in liquid culture
[9] = EF3030 48 h biofilm (7.5 log), 100 μg/mL ALAFAC, 200 μg/ml gentamicin, 3 hours

Molecule | Biofilm bactericidal activity, reduction in viable bacteria [1] | Biofilm death / reduction in biofilm biomass ([1]; MRSA NRS70 biofilm) | Biofilm death / reduction in biofilm biomass ([1]; MSSA 11090306 biofilm) | Colonization level / bacterial burden [2, 4] | Biofilm killing [3, 5] | Minimum antibiotic concentration for bactericidal (>3 log10) activity on biofilms ([3]; S. pneumoniae D39 biofilm) | Biofilm killing [3, 6] | MIC (Streptococcus pneumoniae; S. pneumoniae D39, agent alone) | MIC (Streptococcus pneumoniae; [7]) | MIC (Streptococcus pneumoniae; [8]) | Biofilm killing [3, 9] | Biofilm viability [1] | also measured
COc1cccc(OC)c1C(=O)N[C@@H]1C(=O)N2[C@@H]1SC(C)(C)[C@@H]2C(=O)O [Methicillin, methicillin] | failed to induce bactericidal activity | 0.16 log10 | 1 log10 | – | – | – | – | – | – | – | – | – | Minimum antibiotic concentration for bactericidal (>3 log10) activity on biofilms ([1]; S. aureus 11090306 biofilm): >1000 μg/ml; Minimum antibiotic concentration for bactericidal (>3 log10) activity on biofilms ([1]; S. aureus NRS70 biofilm): >1000 μg/ml
CC1(C)S[C@@H]2[C@H](NC(=O)Cc3ccccc3)C(=O)N2[C@H]1C(=O)O [Penicillin, penicillin G] | – | – | – | no effect | not bactericidal | >5000 μg/ml | almost complete resistance | – | – | – | – | – | Minimum antibiotic concentration for bactericidal (>3 log10) activity on murine nasopharyngeal colonization ([2]; SP670): >100 μg/dose; Colonization level / bacterial burden ([2]; ALAFAC 50 μg, alone or combined, listed as Penicillin G): no effect; Colonization level / bacterial burden ([2]; ALAFAC 50 μg, alone or combined, listed as penicillin): no effect; also recorded: completely resistant; Colonization level / bacterial burden ([2]; ALAFAC 50 μg, alone or combined, listed as penicillin G): no change in colonization; MIC (Streptococcus pneumoniae; Streptococcus pneumoniae, S. pneumoniae D39, agent alone, read-out: MIC): 0.01 µg/mL; MIC (Streptococcus pneumoniae; Streptococcus pneumoniae, S. pneumoniae EF3030, agent alone, read-out: MIC): 0.01 µg/mL; MIC (Streptococcus pneumoniae; Streptococcus pneumoniae, S. pneumoniae SP670 (penicillin-resistant), agent alone, read-out: MIC): 4 µg/mL; Minimum antibiotic concentration for bactericidal (>3 log10) activity on biofilms ([3]; S. pneumoniae SP670 biofilm): >5000 μg/ml
gentamicin | – | – | – | – | – | >600 μg/ml | – | 16 µg/mL | 16 µg/mL | 16 µg/mL | 1.1 log | Neither ALAFAC (500 μg/ml; 30 μM) nor gentamicin (50 μg/ml; 105 μM) had any effect | Dose concentration required to eradicate nasal lavage-associated bacteria ([2]; EF3030, gentamicin alone): 1,500 μg/ml; Minimum antibiotic concentration for bactericidal (>3 log10) activity on murine nasopharyngeal colonization ([2]; EF3030): 100 μg/dose; Gentamicin dose at which reduction of bacterial burden starts ([2]; EF3030, nasal lavage, gentamicin alone): 3 μg/mouse; Gentamicin dose at which reduction of bacterial burden starts ([2]; EF3030, nasopharyngeal tissues, gentamicin alone): 10 μg/mouse; Biofilm bactericidal activity ([3]; EF3030 48 h biofilm, gentamicin 200 or 500 μg/mL alone or with 100 μg/mL ALAFAC, 3 hours): Neither concentration of gentamicin was bactericidal; Minimum antibiotic concentration for bactericidal (>3 log10) activity on biofilms ([3]; S. pneumoniae EF3030 biofilm): >600 μg/ml
B1 | failed to induce bactericidal activity | no death | no death | no effect; also recorded: no decrease in the pneumococcal burden | not bactericidal | – | almost complete resistance | 20 µg/mL | 20 µg/mL | ≈ 20 μg/ml | no bactericidal activity | Neither ALAFAC (500 μg/ml; 30 μM) nor gentamicin (50 μg/ml; 105 μM) had any effect | Bacterial burden, nasopharyngeal tissue and nasal lavage ([2]; mice colonized with EF3030 for 48 hours, single intranasal dose, ALAFAC 50 μg, gentamicin, alone or combined, 6 hours): no decrease in bacterial burden; MIC (Streptococcus pneumoniae; S. pneumoniae JY53 (erythromycin-resistant), agent alone): 20 µg/mL; MIC (Streptococcus pneumoniae; S. pneumoniae SP670 (penicillin-resistant), agent alone): 20 µg/mL
